Measured values: ChEMBL document CHEMBL3132854, “Synthesis and anticancer activity evaluation of resveratrolchalcone conjugates” (2014)

Tests used:
NCI-H522 = assay: Growth inhibition of human NCI-H522 cells assessed as cell growth at 10 uM by sulforhodamine B assay relative to control; values are per cent of control
MOLT-4 = assay: Growth inhibition of human MOLT4 cells assessed as cell growth at 10 uM by sulforhodamine B assay relative to control; values are per cent of control
ACHN = assay: Growth inhibition of human ACHN cells assessed as cell growth at 10 uM by sulforhodamine B assay relative to control; values are per cent of control
U-251 = assay: Growth inhibition of human U251 cells assessed as cell growth at 10 uM by sulforhodamine B assay relative to control; values are per cent of control
MCF7 = assay: Growth inhibition of human MCF7 cells assessed as cell growth at 10 uM by sulforhodamine B assay relative to control; values are per cent of control
KM12 = assay: Growth inhibition of human KM12 cells assessed as cell growth at 10 uM by sulforhodamine B assay relative to control; values are per cent of control
OVCAR-8 = assay: Growth inhibition of human OVCAR8 cells assessed as cell growth at 10 uM by sulforhodamine B assay relative to control; values are per cent of control
SN12C = assay: Growth inhibition of human SN12C cells assessed as cell growth at 10 uM by sulforhodamine B assay relative to control; values are per cent of control
NCI-H226 = assay: Growth inhibition of human NCI-H226 cells assessed as cell growth at 10 uM by sulforhodamine B assay relative to control; values are per cent of control
[1] = Growth inhibition of human OVCAR4 cells assessed as cell growth at 10 uM by sulforhodamine B assay relative to control; values are per cent of control; conditions: OVCAR-4
SR = assay: Growth inhibition of human SR cells assessed as cell growth at 10 uM by sulforhodamine B assay relative to control; values are per cent of control
[2] = Growth inhibition of human OVCAR5 cells assessed as cell growth at 10 uM by sulforhodamine B assay relative to control; values are per cent of control; conditions: OVCAR-5
DU-145 = assay: Growth inhibition of human DU145 cells assessed as cell growth at 10 uM by sulforhodamine B assay relative to control; values are per cent of control
COLO 205 = assay: Growth inhibition of human COLO205 cells assessed as cell growth at 10 uM by sulforhodamine B assay relative to control; values are per cent of control
SW-620 = assay: Growth inhibition of human SW620 cells assessed as cell growth at 10 uM by sulforhodamine B assay relative to control; values are per cent of control
RPMI-8226 = assay: Growth inhibition of human RPMI8226 cells assessed as cell growth at 10 uM by sulforhodamine B assay relative to control; values are per cent of control
HL-60(TB) = assay: Growth inhibition of human HL-60(TB) cells assessed as cell growth at 10 uM by sulforhodamine B assay relative to control; assay type: functional; conditions: values are per cent of control
MDA-MB-435 = assay: Growth inhibition of human MDA-MB-435 cells assessed as cell growth at 10 uM by sulforhodamine B assay relative to control; values are per cent of control
OVCAR-3 = assay: Growth inhibition of human OVCAR3 cells assessed as cell growth at 10 uM by sulforhodamine B assay relative to control; values are per cent of control
[3] = Growth inhibition of human HCC2998 cells assessed as cell growth at 10 uM by sulforhodamine B assay relative to control; values are per cent of control; conditions: HCC 2998
[4] = Growth inhibition of human RXF393 cells assessed as cell growth at 10 uM by sulforhodamine B assay relative to control; values are per cent of control; conditions: RXF 393
[5] = Growth inhibition of human HOP92 cells assessed as cell growth at 10 uM by sulforhodamine B assay relative to control; values are per cent of control; conditions: HOP-92
CCRF-CEM = assay: Growth inhibition of human CCRF-CEM cells assessed as cell growth at 10 uM by sulforhodamine B assay relative to control; assay type: functional; conditions: values are per cent of control
NCI-H23 = assay: Growth inhibition of human NCI-H23 cells assessed as cell growth at 10 uM by sulforhodamine B assay relative to control; values are per cent of control
SK-MEL-2 = assay: Growth inhibition of human SK-MEL-2 cells assessed as cell growth at 10 uM by sulforhodamine B assay relative to control; values are per cent of control
SK-MEL-28 = assay: Growth inhibition of human SK-MEL-28 cells assessed as cell growth at 10 uM by sulforhodamine B assay relative to control; values are per cent of control
[6] = Growth inhibition of human UO31 cells assessed as cell growth at 10 uM by sulforhodamine B assay relative to control; values are per cent of control; conditions: UO-31
Malme-3M = assay: Growth inhibition of human MALME-3M cells assessed as cell growth at 10 uM by sulforhodamine B assay relative to control; values are per cent of control
NCI-H460 = assay: Growth inhibition of human NCI-H460 cells assessed as cell growth at 10 uM by sulforhodamine B assay relative to control; values are per cent of control
SK-MEL-5 = assay: Growth inhibition of human SK-MEL-5 cells assessed as cell growth at 10 uM by sulforhodamine B assay relative to control; values are per cent of control
NCI-H322M = assay: Growth inhibition of human NCI-H322M cells assessed as cell growth at 10 uM by sulforhodamine B assay relative to control; values are per cent of control

COc1ccc(/C=C/c2ccc(/C=C/C(=O)c3ccc(Cl)cc3)cc2)cc1
growth, % of control at 10 µM (NCI-H522): 106% | growth, % of control at 10 µM (MOLT-4): 92.5% | growth, % of control at 10 µM (ACHN): 110% | growth, % of control at 10 µM (U-251): 99.7% | growth, % of control at 10 µM (MCF7): 89.5% | growth, % of control at 10 µM (KM12): 96.3% | growth, % of control at 10 µM (OVCAR-8): 109% | growth, % of control at 10 µM (SN12C): 99.8% | growth, % of control at 10 µM (NCI-H226): 112% | growth, % of control at 10 µM [1]: 102% | growth, % of control at 10 µM (SR): 82.4% | growth, % of control at 10 µM [2]: 102% | growth, % of control at 10 µM (DU-145): 103% | growth, % of control at 10 µM (COLO 205): 111% | growth, % of control at 10 µM (SW-620): 102% | growth, % of control at 10 µM (RPMI-8226): 99.2% | growth, % of control at 10 µM (HL-60(TB)): 92.2% | growth, % of control at 10 µM (MDA-MB-435): 95.3% | growth, % of control at 10 µM (OVCAR-3): 101% | growth, % of control at 10 µM [3]: 99.9% | growth, % of control at 10 µM [4]: 115% | growth, % of control at 10 µM [5]: 98.5% | growth, % of control at 10 µM (CCRF-CEM): 97.2% | growth, % of control at 10 µM (NCI-H23): 100% | growth, % of control at 10 µM (SK-MEL-2): 101% | growth, % of control at 10 µM (SK-MEL-28): 112% | growth, % of control at 10 µM [6]: 80.7% | growth, % of control at 10 µM (Malme-3M): 103% | growth, % of control at 10 µM (NCI-H460): 101% | growth, % of control at 10 µM (SK-MEL-5): 107% | growth, % of control at 10 µM (NCI-H322M): 97%

COc1ccc(C(=O)/C=C/c2ccc(/C=C/c3ccc(Cl)cc3)cc2)cc1
growth, % of control at 10 µM (NCI-H522): 125% | growth, % of control at 10 µM (MOLT-4): 92.6% | growth, % of control at 10 µM (ACHN): 94.6% | growth, % of control at 10 µM (U-251): 101% | growth, % of control at 10 µM (MCF7): 93% | growth, % of control at 10 µM (KM12): 100% | growth, % of control at 10 µM (OVCAR-8): 104% | growth, % of control at 10 µM (SN12C): 97.4% | growth, % of control at 10 µM (NCI-H226): 101% | growth, % of control at 10 µM [1]: 107% | growth, % of control at 10 µM (SR): 85.6% | growth, % of control at 10 µM [2]: 96.6% | growth, % of control at 10 µM (DU-145): 108% | growth, % of control at 10 µM (COLO 205): 107% | growth, % of control at 10 µM (SW-620): 99.8% | growth, % of control at 10 µM (RPMI-8226): 102% | growth, % of control at 10 µM (HL-60(TB)): 94.4% | growth, % of control at 10 µM (MDA-MB-435): 103% | growth, % of control at 10 µM (OVCAR-3): 101% | growth, % of control at 10 µM [3]: 105% | growth, % of control at 10 µM [4]: 116% | growth, % of control at 10 µM [5]: 102% | growth, % of control at 10 µM (CCRF-CEM): 97.7% | growth, % of control at 10 µM (NCI-H23): 103% | growth, % of control at 10 µM (SK-MEL-2): 106% | growth, % of control at 10 µM (SK-MEL-28): 104% | growth, % of control at 10 µM [6]: 102% | growth, % of control at 10 µM (Malme-3M): 87.4% | growth, % of control at 10 µM (NCI-H460): 102% | growth, % of control at 10 µM (SK-MEL-5): 106% | growth, % of control at 10 µM (NCI-H322M): 76.6%

COc1ccc(C(=O)/C=C/c2ccc(/C=C/c3cc(OC)c(OC)c(OC)c3)cc2)cc1
growth, % of control at 10 µM (NCI-H522): 5.55% | growth, % of control at 10 µM (MOLT-4): 9.62% | growth, % of control at 10 µM (ACHN): 68.1% | growth, % of control at 10 µM (U-251): 36.3% | growth, % of control at 10 µM (MCF7): 30.6% | growth, % of control at 10 µM (KM12): 29.2% | growth, % of control at 10 µM (OVCAR-8): 28.4% | growth, % of control at 10 µM (SN12C): 56.7% | growth, % of control at 10 µM (NCI-H226): 72.4% | growth, % of control at 10 µM [1]: 65.7% | growth, % of control at 10 µM (SR): 9.61% | growth, % of control at 10 µM [2]: 117% | growth, % of control at 10 µM (DU-145): 68.4% | growth, % of control at 10 µM (COLO 205): 68.2% | growth, % of control at 10 µM (SW-620): 39.3% | growth, % of control at 10 µM (RPMI-8226): -0.63% | growth, % of control at 10 µM (HL-60(TB)): 21.5% | growth, % of control at 10 µM (MDA-MB-435): 41% | growth, % of control at 10 µM (OVCAR-3): 41.4% | growth, % of control at 10 µM [3]: 94.1% | growth, % of control at 10 µM [4]: 71.3% | growth, % of control at 10 µM [5]: 51.9% | growth, % of control at 10 µM (CCRF-CEM): 19.6% | growth, % of control at 10 µM (NCI-H23): 43.5% | growth, % of control at 10 µM (SK-MEL-2): 65.1% | growth, % of control at 10 µM (SK-MEL-28): 84.7% | growth, % of control at 10 µM [6]: 40.5% | growth, % of control at 10 µM (Malme-3M): 66.8% | growth, % of control at 10 µM (NCI-H460): 59.6% | growth, % of control at 10 µM (SK-MEL-5): 62% | growth, % of control at 10 µM (NCI-H322M): 64.8%

COc1ccc(C(=O)/C=C/c2ccc(/C=C/c3ccc(F)cc3)cc2)cc1
growth, % of control at 10 µM (NCI-H522): 84% | growth, % of control at 10 µM (MOLT-4): 96.2% | growth, % of control at 10 µM (ACHN): 102% | growth, % of control at 10 µM (U-251): 100% | growth, % of control at 10 µM (MCF7): 93.9% | growth, % of control at 10 µM (KM12): 104% | growth, % of control at 10 µM (OVCAR-8): 106% | growth, % of control at 10 µM (SN12C): 102% | growth, % of control at 10 µM (NCI-H226): 109% | growth, % of control at 10 µM [1]: 115% | growth, % of control at 10 µM (SR): 91% | growth, % of control at 10 µM [2]: 102% | growth, % of control at 10 µM (DU-145): 109% | growth, % of control at 10 µM (COLO 205): 107% | growth, % of control at 10 µM (SW-620): 104% | growth, % of control at 10 µM (RPMI-8226): 104% | growth, % of control at 10 µM (HL-60(TB)): 101% | growth, % of control at 10 µM (MDA-MB-435): 98.9% | growth, % of control at 10 µM (OVCAR-3): 112% | growth, % of control at 10 µM [3]: 94.1% | growth, % of control at 10 µM [4]: 117% | growth, % of control at 10 µM [5]: 108% | growth, % of control at 10 µM (CCRF-CEM): 104% | growth, % of control at 10 µM (NCI-H23): 98.1% | growth, % of control at 10 µM (SK-MEL-2): 96.2% | growth, % of control at 10 µM (SK-MEL-28): 112% | growth, % of control at 10 µM [6]: 94.4% | growth, % of control at 10 µM (Malme-3M): 99.9% | growth, % of control at 10 µM (NCI-H460): 104% | growth, % of control at 10 µM (SK-MEL-5): 104% | growth, % of control at 10 µM (NCI-H322M): 99.6%
